According to PMC6327985, “Soyasaponins from Zolfino bean as aldose reductase differential inhibitors” (Journal of Enzyme Inhibition and Medicinal Chemistry, 2018):
Where two headings read alike, the source gives them in different places.

Target: T1, human recombinant AKR1B1 (hAKR1B1) (Homo sapiens, UniProt P15121)
T1 construct: made in house
Test: Assay of aldose reductase: hAKR1B1-catalysed NADPH-dependent reduction of L-idose or HNE, decrease in absorbance at 340 nm
Type: biochemical
Settings: for IC50: 8 mU hAKR1B1, authentic standard; for K’i (ternary enzyme-substrate-inhibitor complex dissociation constant) / Ki: Hanes-Woolf analysis, mean ± SEM; for Ki: read-out: Ki (binary enzyme-inhibitor complex dissociation constant)
Procedure: The AKR1B1 activity was determined at 37 °C as previously described, monitoring the decrease in absorbance at 340 nm linked to NADPH oxidation (ε340=6.22 mM^−1 cm^−1) through a Biochrom Libra S60 spectrophotometer. In a 0.25 M sodium phosphate buffer pH 6.8, the standard assay mixture contained 0.18 mM NADPH, 0.4 M ammonium sulphate, 0.5 mM EDTA and 4.7 mM GAL. One unit of enzyme activity is the amount that catalyses the conversion of 1 µmol of substrate/min in the above assay conditions. These assay conditions were also adopted to assess the effectiveness of inhibitors when L-idose or HNE were used, at the indicated concentrations, as substrates instead of GAL. Differential inhibition (DI) refers to the difference between the percentage inhibition observed using L-idose and HNE as substrates in the assay conditions indicated.
The human recombinant AKR1B1 (hAKR1B1) was expressed and purified to electrophoretic homogeneity as previously described. The purified enzyme (specific activity 5.3 U/mg) was stored at −80 °C in a 10 mM sodium phosphate buffer pH 7.0 containing 2 mM DTT and 30% (w/v) glycerol. Before use, the enzyme was extensively dialysed against a 10 mM sodium phosphate buffer pH 7.0.
The protein concentration was determined by the Coomassie blue staining method, using BSA as a standard protein. Statistical analysis was performed using the two-way ANOVA test carried out with Graphpad 6.0 software. IC50 determination was performed using standard statistical software (GraphPad Instat version 6.0, San Diego, CA). Results are reported as the mean of the values and the 95% confidence interval from at least three independent measurements.

[1] = substrate 0.04 mM HNE, read-out: IC50 for HNE reduction
[2] = substrate 0.8 mM L-idose, read-out: IC50 for L-idose reduction

Compound | IC50 [1] [µM] | IC50 [2] [µM] | K’i (ternary enzyme-substrate-inhibitor complex dissociation constant) (substrate HNE) [µM] | Ki (substrate HNE) [µM] | K’i (ternary enzyme-substrate-inhibitor complex dissociation constant) (substrate L-idose) [µM] | Ki (substrate L-idose) [µM] | inhibition model (with respect to HNE) | inhibition model (with respect to L-idose)
CC1(C)C[C@@H](O)[C@]2(C)CC[C@]3(C)C(=CC[C@@H]4[C@@]5(C)CC[C@H](O[C@@H]6O[C@H](C(=O)O)[C@@H](O)[C@H](O)[C@H]6O[C@@H]6O[C@H](CO)[C@H](O)[C@H](O)[C@H]6O[C@@H]6O[C@H](CO)[C@@H](O)[C@H](O)[C@H]6O)[C@](C)(CO)[C@@H]5CC[C@]43C)[C@@H]2C1 [SSBa, soyasaponin Ba (V)] | 47 | 40 | 23 ± 4 | 65 ± 12 | 24 ± 2 | 66 ± 17 | mixed inhibitor | mixed inhibitor
C[C@@H]1O[C@@H](O[C@H]2[C@H](O[C@H]3[C@H](O[C@H]4CC[C@@]5(C)[C@@H](CC[C@]6(C)[C@@H]5CC=C5[C@@H]7CC(C)(C)C[C@@H](O)[C@]7(C)CC[C@]56C)[C@@]4(C)CO)O[C@H](C(=O)O)[C@@H](O)[C@@H]3O)O[C@H](CO)[C@H](O)[C@@H]2O)[C@H](O)[C@H](O)[C@H]1O [SSBb, soyasaponin Bb (I)] | 360 | 170 | 248 ± 19 |  | 191 ± 11 | 176 ± 35 | uncompetitive | purely non-competitive inhibitor
